Laboratory results taken from patent publication US20240190920A1, “BECLIN 1-TARGETED STAPLED PEPTIDE AND PHARMACEUTICAL COMPOSITION” (Shenzhen Research Institute of the Hong Kong Polytechnic …, priority 2021, published 2024).
Read-outs that look alike come from different tables or passages of the source. Bridge positions count the residues as written; N and C are the ends. Square brackets hold non-standard residues; d marks the D form. Ends that are not written are not given here. Peptide text beside a SMILES is read from it. R8 = C=CCCCCCC[C@@](C)(N)C(=O)O; S5 = C=CCCC[C@](C)(N)C(=O)O

Legend:
HER2 = assay: EGF-induced endolysosomal degradation of HER2, Western blot; assay type: cell-based; settings: SKBR3, 2 μM, 200 ng/ml EGF
Protocol: (§1) FIG. 9 is a schematic diagram of the result showing peptides based on (I7-01s) scaffold are potent inducers of endolysosomal trafficking. (a-c) Western blot to assess the HER2 and EGFR levels in SKBR3 cells. Cells are starved overnight and are treated with 200 ng/ml EGF respectively with vehicle control (a), 2 μM Tat-SP4 (b), 2 μM i7-01s-31 (c). (d & e) Time-dependent plots to quantify HER2 and EGFR degradation profiles after three independent experiments. The levels of HER2 (d) and EGFR (e) are normalized to the β-actin level at different time points and then further normalized to time 0, when the ligand EGF is added. Data are presented as mean±SEM (n=3).
In some embodiments, the Beclin 1-targeting stapled peptide provided by the present disclosure can effectively promote endolysosomal trafficking. As a scaffolding member of the PI3KC3 complex, Beclin 1 is essential for multiple PI3KC3-dependent processes including autophagy, endolysosomal trafficking and phagocytosis. To assess the efficacy of the newly designed peptides on the endolysosomal trafficking process, the ligand-induced endolysosomal degradation of cell surface receptors HER2 and EGFR is characterized by western blotting using SKBR3 breast cancer cell line that over-expresses both EGFR and HER2. […] In contrast, i7-01s-31 treatment at 2 μM results in significant reduction of HER2 level, with about 50% decrease at 15 hours post EGF stimulation, and about 70% decrease at 24 hours (as shown in FIGS. 9c & 9d). i7-01s-31 treatment also strongly promotes EGFR degradation, with approximately 60% reduction at 15 hours post EGF stimulation (as shown in FIGS. 9c & 9e).
Whole cell lysates are extracted using Laemmli sample buffer (62.5 mM Tris-HCl, pH 6.8, 2% SDS, 25% glycerol, 5% β-mercaptoethanol) supplemented with EDTA-free protease inhibitor cocktail (Roche). Protein concentration is determined using a standard Bradford assay before immunoblotting. Protein samples are separated by SDS-PAGE, transferred to a PVDF membrane (Millipore, USA), and incubated with the primary antibodies and HRP-conjugated secondary antibodies. […]

EGFR = assay: EGF-induced endolysosomal degradation of EGFR, Western blot; assay type: cell-based; settings: SKBR3, 2 μM, 200 ng/ml EGF
Protocol: as §1
In some embodiments, the Beclin 1-targeting stapled peptide provided by the present disclosure can effectively promote endolysosomal trafficking. As a scaffolding member of the PI3KC3 complex, Beclin 1 is essential for multiple PI3KC3-dependent processes including autophagy, endolysosomal trafficking and phagocytosis. […]
Whole cell lysates are extracted using Laemmli sample buffer (62.5 mM Tris-HCl, pH 6.8, 2% SDS, 25% glycerol, 5% β-mercaptoethanol) supplemented with EDTA-free protease inhibitor cocktail (Roche). Protein concentration is determined using a standard Bradford assay before immunoblotting. […]

SKBR3 cells = assay: Flow cytometry with Annexin V FITC-PI staining; assay type: cell-based
Protocol: FIG. 12 is a schematic diagram of the result showing the peptides based on strategy (i7-01s) scaffold induce cell death with necrotic features. Flow cytometry analysis with Annexin V FITC-PI staining is performed in SKBR3 cells after treatment of the indicated peptides for 24 hours.
The degree of cellular apoptosis and necrosis is assessed by flow cytometry following the standard protocol provided by the manufacturer. Briefly, SKBR3 cells after the indicated peptide treatment are harvested by trypsin, labelled with Annexin V and PI (Invitrogen), subjected to flow cytometer system (BD Accuri C6), and analyzed by BD Accuri C6 software. The cell populations can be distinguished by the staining of Annexin V/PI. Typically, cellular population in the lower left quadrant is live cells (Annexin V^−, PI^−), the lower right quadrant represents early apoptotic cells (Annexin V^+, PI^−), the upper right quadrant represents late apoptotic cells (Annexin V^+, PI^+), the upper left quadrant represents necrotic cells (Annexin V^−, PI^+).

[1] = target: T1, Beclin 1 coiled coil domain (Homo sapiens, UniProt Q14457); assay: Isothermal titration calorimetry (ITC) binding affinity; settings: 25° C., pH 7.4, Tat-fused peptide
T1 construct: the coiled coil domain of human Beclin 1 (residues 176-268); thioredoxin-6xHis fusion tag with HRV 3C protease cleavage site; made in house; host or cells: Escherichia coli BL21(DE3)
T1 sequence (Q14457 176-268): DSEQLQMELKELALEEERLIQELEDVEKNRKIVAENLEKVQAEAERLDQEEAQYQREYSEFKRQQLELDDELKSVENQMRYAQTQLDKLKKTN
Protocol: The expression and purification of Beclin 1 coiled coil domain is performed as described previously. Briefly, the coiled coil domain of human Beclin 1 (residues 176-268) is cloned into the modified pET32a vector containing the human rhinovirus (HRV) 3C protease cleavage site and thioredoxin-6×His fusion tag. Recombinant protein for the Beclin1 coiled oil domain is expressed in Escherichia coli BL21(DE3) and purified by Ni^2+-NTA affinity chromatography (His Trap HP, GE Healthcare) first and followed by size-exclusion chromatography (Superdex 75, GE Healthcare).
ITC assays are carried out by MicroCal PEAQ-ITC Automated (Marvern) at 25° C. All designed peptides and purified protein for the Beclin 1 coiled coil domain are dialyzed into the buffer containing 50 mM Tris, 150 mM NaCl at pH 7.4. For each titration assay, the injection syringe is loaded with 40 μl of peptide and the cell is loaded with Beclin 1 coiled coil domain protein. Typically, titrations consist of 19 injections, and each injection is performed at a time interval of 180 seconds to ensure that the titration peak returns to the baseline. The titration data are analyzed using the MicroCal PEAQ-ITC Analysis software and fitted by the one-site binding model.

| Molecule | change of Annexin V positive cells (apoptosis) (SKBR3 cells; SKBR3, 24 hours) | Kd [1] | other results |
| --- | --- | --- | --- |
| CC[C@H](C)[C@H](NC(=O)[C@H](CC(C)C)NC(=O)[C@H](CCCNC(=N)N)NC(=O)[C@H](CCCNC(=N)N)NC(=O)[C@H](CCCNC(=N)N)NC(=O)[C@H](CCCNC(=N)N)NC(=O)[C@H](CCC(N)=O)NC(=O)[C@H](CCCNC(=N)N)NC(=O)[C@H](CCCNC(=N)N)NC(=O)[C@H](CCCCN)NC(=O)[C@H](CCCCN)NC(=O)[C@H](CCCNC(=N)N)NC(=O)CNC(=O)[C@H](Cc1ccc(O)cc1)NC(C)=O)C(=O)N[C@@H](CO)C(=O)N[C@@H](CCC(=O)O)C(=O)N[C@@H](CC(C)C)C(=O)N[C@]1(C)CCCCCCC=CCCC[C@@](C)(C(=O)N[C@@H](C)C(N)=O)NC(=O)[C@H](CCCNC(=N)N)NC(=O)[C@H](CCC(N)=O)NC(=O)[C@H](CCCCN)NC(=O)[C@H](CCC(=O)O)NC(=O)[C@H](CCCNC(=N)N)NC(=O)[C@H](CC(=O)O)NC1=O [Tat-SP4, Ac-[Tat]-RLISEL(R8)DREKQR(S5)A-NH2, reference compound] (Ac-YGRKKRRQRRRRLISEL[R8]DREKQR[S5]A-NH2; staple 18-25) | no increase |  | HER2 degradation profile (HER2): does not show any noticeable impact; EGFR degradation profile (EGFR): does not show any noticeable impact; PI positive cells (SKBR3 cells; SKBR3, 10 μM, 24 hours): approximately 8%; change of PI positive staining cells (dead cells) (SKBR3 cells; SKBR3, 24 hours): significant increase |
| COc1cccc2c1C(=O)c1c(O)c3c(c(O)c1C2=O)C[C@@](O)(C(=O)CO)C[C@@H]3O[C@H]1C[C@H](N)[C@H](O)[C@H](C)O1 [doxorubicin, reference compound] | significant increase |  |  |
| CC[C@H](C)[C@H](NC(=O)[C@H](CC(C)C)NC(=O)[C@H](C)NC(=O)[C@H](CCCNC(=N)N)NC(=O)[C@H](CCCNC(=N)N)NC(=O)[C@H](CCCNC(=N)N)NC(=O)[C@H](CCC(N)=O)NC(=O)[C@H](CCCNC(=N)N)NC(=O)[C@H](CCCNC(=N)N)NC(=O)[C@H](CCCCN)NC(=O)[C@H](CCCCN)NC(=O)[C@H](CCCNC(=N)N)NC(=O)CNC(=O)[C@H](Cc1ccc(O)cc1)NC(C)=O)C(=O)N[C@@H](CCC(N)=O)C(=O)N[C@]1(C)CCCCCCC=CCCC[C@@](C)(C(=O)N[C@@H](CCCNC(=N)N)C(=O)N[C@@H](CCCCN)C(=O)N[C@@H](CCCNC(=N)N)C(N)=O)NC(=O)[C@H](CCCCN)NC(=O)[C@H](CCC(=O)O)NC(=O)[C@H](C(C)C)NC(=O)[C@H](CC(=O)O)NC(=O)[C@H](CCC(=O)O)NC(=O)[C@H](CCC(N)=O)NC1=O [i7-01s-54, Ace-ALIQR8QEDVEKS5RKR-Nme] (Ac-YGRKKRRQRRRALIQ[R8]QEDVEK[S5]RKR-NH2; staple 16-23) |  |  | Kd ([1]; read-out: Kd): 311 ± 54.6 µM |
| Ace-RFIQR8LEVVIKS5RSV-Nme (Ac-RFIQ[R8]LEVVIK[S5]RSV; staple 5-12; not fully specified (C-terminus); printed as Ace-RFIQR8LEVVIKS5RSV-Nme) [i7-01s-34] |  | No binding |  |
| Ace-RLIQR8REDVEKS5RKR-Nme (Ac-RLIQ[R8]REDVEK[S5]RKR; staple 5-12; not fully specified (C-terminus); printed as Ace-RLIQR8REDVEKS5RKR-Nme) [i7-01s-36] |  | No binding |  |
| Ace-RLLQR8LKTVLKS5RSV-Nme (Ac-RLLQ[R8]LKTVLK[S5]RSV; staple 5-12; not fully specified (C-terminus); printed as Ace-RLLQR8LKTVLKS5RSV-Nme) [i7-01s-30] |  | No binding |  |
